SMILES strings stand for the structures.

The text below walks through data of patent publication US9370507B2, “Pyridonyl guanidine F1F0-ATPase inhibitors and therapeutic uses thereof” (Lycera Corporation, priority 2010, dated 2016).

For assay [1], the system named is Ramos cells. As to the kind of experiment: Cytotoxicity in Ramos cells. It is filed as cell-based. Particulars: Homo sapiens, read-out: Ramos Cell EC50. On the procedure: (§1) The compounds listed in Table 4 were tested for activity against F1F0-ATPase by measuring the ability of the compounds to inhibit ATP synthesis. In addition, the compounds were assessed for cytotoxicity in Ramos cells Inhibition of F1F0-ATPase activity in synthesizing ATP and cytotoxicity in Ramos cells were measured according to the procedures described in K. M. Johnson et al. Chemistry & Biology 2005, 12, 485-496.

Assay [2] deals with T1, F1F0-ATPase (Bos taurus, UniProt P13621).
T1 construct: from tissue
As to the kind of experiment: Inhibition of F1F0-ATPase activity in synthesizing ATP. It is filed as biochemical. To be noted: inhibition of ATP synthesis; read-out: ATP Syn IC50. On the procedure: as §1

Usually EC50 stands for the concentration needed to bring the measured effect to its halfway point. Broadly, the IC50 is the point on the concentration scale where inhibition reaches its midpoint. In the case of `O=C(/N=C(\Nc1cccc(C(F)(F)F)c1)Nc1cccc(O)n1)c1ccc(C(F)(F)F)cc1` [Compound A-1], the EC50 in assay [1] is below 10 µM. Also, the IC50 in assay [2] is below 10 µM.

With `O=C(/N=C(/Nc1cc(F)cc(Cl)c1)Nc1cccc(O)n1)c1ccc(C(F)(F)F)cc1` [Compound A-2], in assay [1], the EC50 was below 10 µM. Moreover, in assay [2], the IC50 is below 10 µM.

As to `O=C(/N=C(/Nc1cccc(C(F)(F)F)c1)Nc1cccc(O)n1)c1ccc(F)c(F)c1` [Compound A-3], the EC50 in assay [1] is below 10 µM. The IC50 in assay [2] was below 10 µM.

As to `O=C(/N=C(/Nc1cc(F)cc(Cl)c1)Nc1cccc(O)n1)c1ccc(F)c(F)c1` [Compound A-4], the EC50 in assay [1] was below 10 µM. Moreover, the IC50 in assay [2] is below 10 µM.

With `O=C(/N=C(/Nc1ccc(F)c(Cl)c1)Nc1cccc(O)n1)c1ccc(C(F)(F)F)cc1` [Compound A-5], in assay [1], the EC50 is below 10 µM. Moreover, the IC50 in assay [2] is below 10 µM.

For the compound `O=C(/N=C(\Nc1cccc(O)n1)Nc1ccccc1C1CC1)c1ccc(C(F)(F)F)cc1` [Compound A-6], the EC50 in assay [1] was below 10 µM. Moreover, in assay [2], the IC50 was below 10 µM.

Turning to `O=C(N/C(=N\c1cccc(O)n1)Nc1cccc(Cl)c1)c1ccc(C(F)(F)F)cc1` [Compound A-7], the EC50 in assay [1] was below 10 µM. In assay [2], the IC50 is below 10 µM.

Take `O=C(N/C(=N\c1cccc(O)n1)Nc1cc(F)cc(Cl)c1)c1ccc(Cl)cc1` [Compound A-8]: the EC50 in assay [1] is below 10 µM. Moreover, the IC50 in assay [2] was below 10 µM.

Turning to `O=C(N/C(=N\c1cccc(O)n1)Nc1ccc(F)c(Cl)c1)c1ccc(F)c(F)c1` [Compound A-9], the EC50 in assay [1] is above 10 µM. For the same compound, the half-maximal inhibitory concentration (IC50) in assay [2] is above 10 µM.

Consider `CN(/C(=N\C(=O)c1ccc(F)c(F)c1)Nc1cccc(O)n1)c1ccc(F)c(Cl)c1` [Compound A-10], for which, in assay [1], the EC50 is above 10 µM. The IC50 in assay [2] was above 10 µM.

As to `O=C(/N=C(\Nc1cccc(O)n1)Nc1ccc(F)cc1C1CC1)c1ccc(F)c(F)c1` [Compound A-11], the EC50 in assay [1] was below 10 µM. For the same compound, the IC50 in assay [2] was below 10 µM.

Take `O=C(/N=C(\Nc1cccc(O)n1)Nc1ccc(F)cc1C1CC1)c1ccc(C(F)(F)F)cc1` [Compound A-12]: in assay [1], the EC50 was below 10 µM. The IC50 in assay [2] is below 10 µM.

For `CC(C)(C)c1ccccc1N/C(=N/C(=O)c1ccc(F)c(F)c1)Nc1cccc(O)n1` [Compound A-13], the EC50 in assay [1] is below 10 µM. Moreover, the IC50 in assay [2] was below 10 µM.

Turning to `CC(C)(C)c1ccccc1N/C(=N/C(=O)c1ccc(C(F)(F)F)cc1)Nc1cccc(O)n1` [Compound A-14], the EC50 in assay [1] is below 10 µM. In assay [2], the IC50 is below 10 µM.

Take `O=C(/N=C(/Nc1cccc(C(F)(F)F)c1)Nc1cccc(O)n1)c1ccc(Cl)cc1` [Compound A-15]: the EC50 in assay [1] is below 10 µM. Further, the IC50 in assay [2] was below 10 µM.

As for `O=C(/N=C(/Nc1cccc(C(F)(F)F)c1)Nc1cccc(O)n1)c1cccc(Cl)c1` [Compound A-16], the EC50 in assay [1] was below 10 µM. Besides, the IC50 in assay [2] is below 10 µM.

As for `O=C(/N=C(/Nc1cccc(C(F)(F)F)c1)Nc1cccc(O)n1)c1cccc(C(F)(F)F)c1` [Compound A-17], the EC50 in assay [1] is below 10 µM. The IC50 in assay [2] is below 10 µM.

As for `O=C(/N=C(/Nc1cccc(C(F)(F)F)c1)Nc1cccc(O)n1)c1ccc(Cl)c(F)c1` [Compound A-18], the EC50 in assay [1] was below 10 µM. Moreover, the IC50 in assay [2] was below 10 µM.

As to `O=C(/N=C(/Nc1cccc(Cl)c1)Nc1cccc(O)n1)c1cccc(Cl)c1` [Compound A-19], the EC50 in assay [1] is below 10 µM. The IC50 in assay [2] is below 10 µM.

Turning to `O=C(/N=C(/Nc1cccc(Cl)c1)Nc1cccc(O)n1)c1cccc(C(F)(F)F)c1` [Compound A-20], the EC50 in assay [1] was below 10 µM. Further, the IC50 in assay [2] was below 10 µM.

`O=C(/N=C(/Nc1cc(F)cc(Cl)c1)Nc1cccc(O)n1)c1cccc(Cl)c1` [Compound A-21]: the EC50 in assay [1] is below 10 µM. Moreover, the IC50 in assay [2] is below 10 µM.

In the case of `O=C(/N=C(/Nc1cc(F)cc(Cl)c1)Nc1cccc(O)n1)c1cccc(C(F)(F)F)c1` [Compound A-22], the EC50 in assay [1] is below 10 µM. Further, the IC50 in assay [2] is below 10 µM.

For the compound `O=C(/N=C(/Nc1cc(F)cc(Cl)c1)Nc1cccc(O)n1)c1ccc(Cl)c(F)c1` [Compound A-23], the EC50 in assay [1] was below 10 µM. In addition, in assay [2], the IC50 is below 10 µM.

Consider `O=C(/N=C(/Nc1cccc(Cl)c1)Nc1cccc(O)n1)c1ccc(F)c(F)c1` [Compound A-24], for which, in assay [1], the EC50 was below 10 µM. The IC50 in assay [2] was below 10 µM.

Regarding `O=C(/N=C(/Nc1cccc(Cl)c1)Nc1cccc(O)n1)c1ccc(Cl)cc1` [Compound A-25], the EC50 in assay [1] was above 10 µM. The IC50 in assay [2] was below 10 µM.

As to `O=C(/N=C(/Nc1cccc(C2CC2)c1)Nc1cccc(O)n1)c1ccc(C(F)(F)F)cc1` [Compound A-26], the EC50 in assay [1] is below 10 µM. Further, the IC50 in assay [2] was below 10 µM.

For `O=C(/N=C(/NCc1ccc(F)c(Cl)c1)Nc1cccc(O)n1)c1ccc(F)c(F)c1` [Compound A-27], the EC50 in assay [1] was below 10 µM. Moreover, the IC50 in assay [2] was below 10 µM.

Consider `O=C(/N=C(/NCc1ccc(F)c(Cl)c1)Nc1cccc(O)n1)c1ccc(C(F)(F)F)cc1` [Compound A-28], for which the EC50 in assay [1] was below 10 µM. Besides, the IC50 in assay [2] was below 10 µM.

On to `CC1CCC(N/C(=N/C(=O)c2ccc(C(F)(F)F)cc2)Nc2cccc(O)n2)CC1` (stereo not drawn) [Compound A-29], for which the EC50 in assay [1] is below 10 µM. In assay [2], the IC50 is below 10 µM.

Consider `O=C(/N=C(\Nc1cccc(O)n1)NC1CCC(F)(F)CC1)c1ccc(C(F)(F)F)cc1` [Compound A-30], for which the EC50 in assay [1] was below 10 µM. In addition, in assay [2], the IC50 is below 10 µM.

Take `O=C(/N=C(\Nc1cccc(O)n1)NC1CCC(F)(F)CC1)c1ccc(F)c(F)c1` [Compound A-31]: the EC50 in assay [1] is below 10 µM. For the same compound, the IC50 in assay [2] is below 10 µM.

As for `O=C(/N=C(/NCc1ccccc1C(F)(F)F)Nc1cccc(O)n1)c1ccc(C(F)(F)F)cc1` [Compound A-32], the EC50 in assay [1] is below 10 µM. In assay [2], the IC50 was below 10 µM.

Regarding `O=C(/N=C(/NCc1cccc(C(F)(F)F)c1)Nc1cccc(O)n1)c1ccc(C(F)(F)F)cc1` [Compound A-33], the EC50 in assay [1] is below 10 µM. The IC50 in assay [2] was below 10 µM.

For `O=C(/N=C(/NCc1ccc(C(F)(F)F)cc1)Nc1cccc(O)n1)c1ccc(C(F)(F)F)cc1` [Compound A-34], in assay [1], the EC50 is below 10 µM. Besides, in assay [2], the IC50 is below 10 µM.

Regarding `O=C(/N=C(/NCc1ccc(C(F)(F)F)cc1)Nc1cccc(O)n1)c1ccc(F)c(F)c1` [Compound A-35], in assay [1], the EC50 is below 10 µM. Besides, in assay [2], the IC50 was below 10 µM.

`O=C(/N=C(/NCc1ccc(F)c(F)c1)Nc1cccc(O)n1)c1ccc(C(F)(F)F)cc1` [Compound A-36]: the EC50 in assay [1] was below 10 µM. Besides, in assay [2], the IC50 is below 10 µM.

Consider `O=C(/N=C(/NCc1cc(F)c(F)c(F)c1)Nc1cccc(O)n1)c1ccc(C(F)(F)F)cc1` [Compound A-37], for which the EC50 in assay [1] was below 10 µM. The IC50 in assay [2] was below 10 µM.

On to `O=C(/N=C(/NCc1c(F)cc(F)cc1F)Nc1cccc(O)n1)c1ccc(C(F)(F)F)cc1` [Compound A-38], for which the EC50 in assay [1] is below 10 µM. The IC50 in assay [2] was below 10 µM.

On to `O=C(/N=C(\Nc1cccc(O)n1)NC1CCCCCC1)c1ccc(C(F)(F)F)cc1` [Compound A-39], for which, in assay [1], the EC50 is below 10 µM. Moreover, the half-inhibitory concentration (IC50) in assay [2] was below 10 µM.

For `O=C(/N=C(/NCC1CC1)Nc1cccc(O)n1)c1ccc(C(F)(F)F)cc1` [Compound A-40], the EC50 in assay [1] is below 10 µM. Further, in assay [2], the IC50 is below 10 µM.

Regarding `CC(C)(C)N/C(=N/C(=O)c1ccc(C(F)(F)F)cc1)Nc1cccc(O)n1` [Compound A-41], in assay [1], the EC50 is below 10 µM. Besides, the IC50 in assay [2] is below 10 µM.

For the compound `O=C(/N=C(/NCC1CCCCC1)Nc1cccc(O)n1)c1ccc(C(F)(F)F)cc1` [Compound A-42], in assay [1], the EC50 is below 10 µM. In addition, the IC50 in assay [2] is below 10 µM.

As to `CC1CCCCC1NC(=NC(=O)c1ccc(C(F)(F)F)cc1)Nc1cccc(O)n1` (stereo not drawn) [Compound A-43], in assay [1], the EC50 is above 10 µM. Besides, the IC50 in assay [2] was below 10 µM.

As for `CC(C)(C)N/C(=N\C(=O)c1ccc(Cl)c(F)c1)Nc1cccc(O)n1` [Compound A-44], in assay [1], the EC50 is below 10 µM. The IC50 in assay [2] was below 10 µM.

For the compound `CC(C)(C)N/C(=N\C(=O)c1ccc(F)c(F)c1)Nc1cccc(O)n1` [Compound A-45], the EC50 in assay [1] was below 10 µM. Besides, in assay [2], the IC50 was below 10 µM.

For `CC1(N/C(=N\C(=O)c2ccc(C(F)(F)F)cc2)Nc2cccc(O)n2)CC1` [Compound A-46], the EC50 in assay [1] is below 10 µM. Besides, the IC50 in assay [2] was below 10 µM.

In the case of `CC1(N/C(=N\C(=O)c2ccc(C(F)(F)F)cc2)Nc2cccc(O)n2)CCC1` [Compound A-47], the EC50 in assay [1] is below 10 µM. Moreover, the IC50 in assay [2] is below 10 µM.

As to `O=C(/N=C(\Nc1cccc(O)n1)NC1CC1)c1ccc(C(F)(F)F)cc1` [Compound A-48], the EC50 in assay [1] is above 10 µM. In addition, the IC50 in assay [2] was below 10 µM.

For `O=C(/N=C(/Nc1cccc(O)n1)NC1CC1)c1ccc(F)c(F)c1` [Compound A-49], in assay [1], the EC50 is above 10 µM. In addition, the IC50 in assay [2] is above 10 µM.

As for `O=C(/N=C(/Nc1cccc(O)n1)NC1CC1)c1ccc(Cl)c(F)c1` [Compound A-50], in assay [1], the EC50 is above 10 µM. Moreover, in assay [2], the IC50 was below 10 µM.

Regarding `CC(C)(N/C(=N/C(=O)c1ccc(C(F)(F)F)cc1)Nc1cccc(O)n1)C(F)(F)F` [Compound A-51], the EC50 in assay [1] is below 10 µM. In assay [2], the IC50 was below 10 µM.

`O=C(/N=C(/NCC(F)(F)F)Nc1cccc(O)n1)c1ccc(C(F)(F)F)cc1` [Compound A-52]: in assay [1], the EC50 was below 10 µM. For the same compound, the IC50 in assay [2] is below 10 µM.

Turning to `Cc1cc(CN/C(=N/C(=O)c2ccc(C(F)(F)F)cc2)Nc2cccc(O)n2)no1` [Compound A-53], the EC50 in assay [1] is below 10 µM. Also, in assay [2], the IC50 was below 10 µM.

Take `Cc1cc(CN/C(=N/C(=O)c2ccc(F)c(F)c2)Nc2cccc(O)n2)no1` [Compound A-54]: the EC50 in assay [1] is above 10 µM. Further, the IC50 in assay [2] was below 10 µM.
